Results on four compounds are retold here after PMC3608462 (Biochemistry, 2011).

Residues, ends and D or L forms follow the SMILES beside them.

Assay [1] has as its system C. trachomatis LGV-L2 434-infected HeLa cells. The settings on record: C. trachomatis LGV-L2 434-infected HeLa cells treated with lactacystin; cited from earlier work.
For the next assay, the target named is CPAF (Chlamydia trachomatis serovar D, UniProt O84866). The assay is classed as biochemical.
Sequence of CPAF (O84866 276-601): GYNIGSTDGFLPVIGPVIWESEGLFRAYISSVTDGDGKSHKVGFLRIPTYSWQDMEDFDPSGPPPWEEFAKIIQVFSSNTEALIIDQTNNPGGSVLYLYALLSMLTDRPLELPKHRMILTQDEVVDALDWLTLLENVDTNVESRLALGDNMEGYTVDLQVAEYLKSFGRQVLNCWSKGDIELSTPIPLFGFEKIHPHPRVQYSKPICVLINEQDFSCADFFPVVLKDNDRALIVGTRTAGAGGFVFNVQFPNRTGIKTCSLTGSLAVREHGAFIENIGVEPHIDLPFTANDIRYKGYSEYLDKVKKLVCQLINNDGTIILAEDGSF
Sequence of CPAF (O84866 1-234): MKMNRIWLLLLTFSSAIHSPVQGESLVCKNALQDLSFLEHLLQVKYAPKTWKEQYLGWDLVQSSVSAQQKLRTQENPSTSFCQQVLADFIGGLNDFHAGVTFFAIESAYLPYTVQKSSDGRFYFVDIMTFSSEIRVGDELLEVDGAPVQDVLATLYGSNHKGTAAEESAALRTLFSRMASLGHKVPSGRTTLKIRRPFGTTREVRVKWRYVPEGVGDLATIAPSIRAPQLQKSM

As for `CC(=O)N[C@@H](CSC(=O)[C@]1([C@@H](O)C(C)C)NC(=O)[C@H](C)[C@@H]1O)C(=O)O` [lactacystin], the “effect on vimentin in infected HeLa cells” value in assay [1] is “fiber oligermerization of vimentin”.

Consider `CSCC[C@H](NC(=O)[C@@H]1CCCN1C(=O)[C@H](CO)NC(=O)[C@H](Cc1ccc(O)cc1)NC(=O)[C@H](Cc1ccccc1)NC(=O)[C@H](CC(C)C)NC(=O)[C@@H](N)CO)C(=O)N[C@H](C(=O)N1CCC[C@H]1C(=O)N[C@@H](Cc1c[nH]cn1)C(=O)N[C@@H](Cc1ccccc1)C(=O)N[C@@H](Cc1c[nH]c2ccccc12)C(=O)N[C@@H](C)C(=O)N[C@@H](CCC(=O)O)C(=O)N[C@@H](CC(C)C)C(=O)N[C@@H](CCCNC(=N)N)C(=O)N[C@@H](CC(N)=O)C(=O)N[C@@H](Cc1c[nH]cn1)C(=O)N[C@@H](Cc1ccc(O)cc1)C(=O)N[C@@H](C)C(=O)N[C@H](C(=O)N[C@@H](CO)C(=O)NCC(=O)N[C@@H](CC(C)C)C(=O)N[C@@H](CCCCN)C(N)=O)[C@@H](C)O)C(C)C` [peptide 3] (H-SLFYSPMVPHFWAELRNHYATSGLK-NH2), for which the “potency relative to lactacystin (fold more potent)” value on CPAF (ratio of CPAF IC50 values) stood at 6 fold.

With `CSCC[C@H](NC(=O)[C@@H]1CCCN1C(=O)[C@H](CO)NC(=O)[C@H](Cc1ccc(O)cc1)NC(=O)[C@H](Cc1ccccc1)NC(=O)[C@H](CC(C)C)NC(=O)[C@@H](N)CO)C(=O)N[C@H](C(=O)N1CCC[C@H]1C(=O)N[C@@H](Cc1c[nH]cn1)C(=O)N[C@@H](Cc1ccccc1)C(=O)N[C@@H](Cc1c[nH]c2ccccc12)C(=O)N[C@@H](C)C(=O)N[C@@H](CCC(=O)O)C(=O)N[C@@H](CC(C)C)C(=O)N[C@@H](CCCNC(=N)N)C(=O)N[C@@H](CC(N)=O)C(=O)N[C@@H](Cc1c[nH]cn1)C(=O)N[C@@H](Cc1ccc(O)cc1)C(=O)N[C@@H](C)C(=O)N[C@H](C(=O)N[C@@H](CO)C(=O)NCC(=O)N[C@@H](CC(C)C)C(=O)N[C@@H](CCCCN)C(=O)N[C@@H](CCCNC(=N)N)C(=O)N[C@@H](CCCNC(=N)N)C(=O)N[C@@H](CCCNC(=N)N)C(=O)N[C@@H](CCCNC(=N)N)C(=O)N[C@@H](CCCNC(=N)N)C(=O)N[C@@H](CCCNC(=N)N)C(=O)N[C@@H](CCCNC(=N)N)C(=O)N[C@@H](CCCNC(=N)N)C(=O)N[C@@H](CCCNC(=N)N)C(N)=O)[C@@H](C)O)C(C)C` [peptide 4] (H-SLFYSPMVPHFWAELRNHYATSGLKRRRRRRRRR-NH2), at CPAF (ratio of CPAF IC50 values), the “potency relative to inhibitor 3 (fold better)” value is reported as about 30 fold and the “potency relative to lactacystin (fold more potent)” value was about 200 fold.

Take “H-NFALSHFRLPLSTYKEMPYVSHWAGRRRRRRRRR-NH2 [peptide 5]”: the “CPAF inhibitory activity in vitro” value on CPAF (in vitro) is “no CPAF inhibitory activity”.
